Experimental data taken from patent US20230050653A1, “ROCK INHIBITOR AND PREPARATION METHOD THEREFOR AND USE THEREOF” (WUHAN LL SCIENCE AND TECHNOLOGY DEVELOPMENT CO., LTD., priority 2019, published 2023).

Legend:
[1] = biological target: T1, ROCK2 kinase (Homo sapiens, UniProt O75116); test: In vitro evaluation of ROCK2 kinase activity (HTRF KinEASE-STK time-resolved fluorometric assay); format: biochemical
T1 construct: purchased Invitrogen PV3759
Description: ROCK2 activity screening. ROCK2 activity was detected using a 96-well (Cisbio) time-resolved fluorometric assay. The assay for ROCK2 was performed in the following assay buffer: 5 mM MgCl2 (Sigma), 1 mM DTT (Sigma) and 1× kinase buffer. The kinase buffer was used for dilution. 7.5 μL of ROCK2 kinase (Invitrogen, PV3759) was added to a 96-well microplate to reach a final concentration of 0.4 ng/μL, and then 0.25 μL of test compound (DMSO content: 1% (volume fraction)) was added. The mixture was incubated at room temperature for 0.5 h. To start the reaction, the kinase buffer was used to mix ATP (Aladdin) and the substrate STK-substrate 2-biotin. 7.5 μL of the mixed solution was added to the microplate to reach final concentrations of 6.739 μM and 1 μM. The resulting mixture was incubated for 2 h at room temperature. 5 mL of detection buffer was mixed with STK antibody-Cryptate, and then an appropriate volume of the mixture was mixed with an equal volume of streptavidin-XL665. 10 μL of the resulting mixture was added to the microplate to stop the reaction. After further incubation for about 1 h, the microplate was read on a Molecular Devices SpectraMax i3x multifunctional microplate reader. The kinase buffer, the STK-substrate 2-biotin, the detection buffer, the STK antibody-Cryptate, and the streptavidin-XL665 were all from HTRF KinEASE-STK kit (Cisbio, 1000 tests, 61[…]).

[2] = biological target: T2, ROCK1 kinase (Homo sapiens, UniProt Q13464); test: In vitro evaluation of ROCK1 kinase selectivity (HTRF KinEASE-STK time-resolved fluorometric assay); format: biochemical
T2 construct: purchased Invitrogen
Description: ROCK1 activity was detected using a 96-well (Cisbio) time-resolved fluorometric assay. The assay for ROCK1 was performed in the following assay buffer: 5 mM MgCl2 (Sigma), 1 mM DTT (Sigma) and 1× kinase buffer. The kinase buffer was used for dilution. 7.5 μL of ROCK1 kinase (Invitrogen) was added to a 96-well microplate to reach a final concentration of 0.4 ng/μL, and then 0.25 μL of test compound (DMSO content: 1%) was added. The mixture was incubated at room temperature for 0.5 h. To start the reaction, the kinase buffer was also used to mix ATP (Aladdin) and the substrate STK-substrate 2-biotin. 7.5 μL of the mixed solution was added to the microplate to reach final concentrations of 3.53 μM and 1 μM. The resulting mixture was incubated for 2 h at room temperature. […] was mixed with STK antibody-Cryptate, and then an appropriate volume of the mixture was mixed with an equal volume of streptavidin-XL665. 10 μL of the resulting mixture was added to stop the reaction. After further incubation for about 1 h, the microplate was read on a Molecular Devices SpectraMax i3x multifunctional microplate reader. The kinase buffer, the STK-substrate 2-biotin, the detection buffer, the STK antibody-Cryptate, and the streptavidin-XL665 were all from HTRF KinEASE-STK kit (Cisbio, 1000 tests, 61[…]).

T1 sequence (O75116 whole entry): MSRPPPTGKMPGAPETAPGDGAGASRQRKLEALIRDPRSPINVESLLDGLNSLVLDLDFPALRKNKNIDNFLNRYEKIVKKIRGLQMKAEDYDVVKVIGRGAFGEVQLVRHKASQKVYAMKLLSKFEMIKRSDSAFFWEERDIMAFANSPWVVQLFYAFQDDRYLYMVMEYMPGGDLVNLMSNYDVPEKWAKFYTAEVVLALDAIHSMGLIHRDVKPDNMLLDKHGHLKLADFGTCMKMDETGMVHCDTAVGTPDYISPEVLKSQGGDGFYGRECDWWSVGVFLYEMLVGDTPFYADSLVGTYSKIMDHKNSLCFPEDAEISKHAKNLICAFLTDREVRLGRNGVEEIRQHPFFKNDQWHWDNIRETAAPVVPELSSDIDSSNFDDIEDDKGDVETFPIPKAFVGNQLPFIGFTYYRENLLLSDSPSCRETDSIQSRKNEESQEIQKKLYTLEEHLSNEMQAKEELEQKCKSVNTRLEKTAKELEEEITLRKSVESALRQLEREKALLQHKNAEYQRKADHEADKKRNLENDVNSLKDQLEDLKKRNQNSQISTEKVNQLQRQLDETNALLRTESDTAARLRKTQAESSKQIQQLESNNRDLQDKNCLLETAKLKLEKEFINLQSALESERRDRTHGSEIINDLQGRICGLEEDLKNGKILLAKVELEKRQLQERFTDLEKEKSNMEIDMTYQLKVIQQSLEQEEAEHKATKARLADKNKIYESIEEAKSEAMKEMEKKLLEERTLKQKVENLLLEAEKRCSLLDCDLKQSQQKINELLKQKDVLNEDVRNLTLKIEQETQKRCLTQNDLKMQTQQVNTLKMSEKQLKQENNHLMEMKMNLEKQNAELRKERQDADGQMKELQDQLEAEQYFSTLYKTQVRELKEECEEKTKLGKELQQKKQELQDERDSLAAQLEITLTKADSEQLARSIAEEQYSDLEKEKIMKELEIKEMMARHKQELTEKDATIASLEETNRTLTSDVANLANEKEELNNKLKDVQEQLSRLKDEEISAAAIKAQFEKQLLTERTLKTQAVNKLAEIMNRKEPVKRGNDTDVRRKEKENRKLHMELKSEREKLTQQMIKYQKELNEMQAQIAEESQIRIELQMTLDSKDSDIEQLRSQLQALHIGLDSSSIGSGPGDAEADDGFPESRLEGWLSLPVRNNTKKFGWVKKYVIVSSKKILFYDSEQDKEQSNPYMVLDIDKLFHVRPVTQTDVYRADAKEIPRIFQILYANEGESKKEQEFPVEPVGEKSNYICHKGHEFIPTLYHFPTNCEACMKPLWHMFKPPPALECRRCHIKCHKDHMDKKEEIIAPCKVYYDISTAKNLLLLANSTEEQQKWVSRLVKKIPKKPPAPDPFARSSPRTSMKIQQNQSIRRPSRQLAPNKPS
T2 sequence (Q13464 whole entry): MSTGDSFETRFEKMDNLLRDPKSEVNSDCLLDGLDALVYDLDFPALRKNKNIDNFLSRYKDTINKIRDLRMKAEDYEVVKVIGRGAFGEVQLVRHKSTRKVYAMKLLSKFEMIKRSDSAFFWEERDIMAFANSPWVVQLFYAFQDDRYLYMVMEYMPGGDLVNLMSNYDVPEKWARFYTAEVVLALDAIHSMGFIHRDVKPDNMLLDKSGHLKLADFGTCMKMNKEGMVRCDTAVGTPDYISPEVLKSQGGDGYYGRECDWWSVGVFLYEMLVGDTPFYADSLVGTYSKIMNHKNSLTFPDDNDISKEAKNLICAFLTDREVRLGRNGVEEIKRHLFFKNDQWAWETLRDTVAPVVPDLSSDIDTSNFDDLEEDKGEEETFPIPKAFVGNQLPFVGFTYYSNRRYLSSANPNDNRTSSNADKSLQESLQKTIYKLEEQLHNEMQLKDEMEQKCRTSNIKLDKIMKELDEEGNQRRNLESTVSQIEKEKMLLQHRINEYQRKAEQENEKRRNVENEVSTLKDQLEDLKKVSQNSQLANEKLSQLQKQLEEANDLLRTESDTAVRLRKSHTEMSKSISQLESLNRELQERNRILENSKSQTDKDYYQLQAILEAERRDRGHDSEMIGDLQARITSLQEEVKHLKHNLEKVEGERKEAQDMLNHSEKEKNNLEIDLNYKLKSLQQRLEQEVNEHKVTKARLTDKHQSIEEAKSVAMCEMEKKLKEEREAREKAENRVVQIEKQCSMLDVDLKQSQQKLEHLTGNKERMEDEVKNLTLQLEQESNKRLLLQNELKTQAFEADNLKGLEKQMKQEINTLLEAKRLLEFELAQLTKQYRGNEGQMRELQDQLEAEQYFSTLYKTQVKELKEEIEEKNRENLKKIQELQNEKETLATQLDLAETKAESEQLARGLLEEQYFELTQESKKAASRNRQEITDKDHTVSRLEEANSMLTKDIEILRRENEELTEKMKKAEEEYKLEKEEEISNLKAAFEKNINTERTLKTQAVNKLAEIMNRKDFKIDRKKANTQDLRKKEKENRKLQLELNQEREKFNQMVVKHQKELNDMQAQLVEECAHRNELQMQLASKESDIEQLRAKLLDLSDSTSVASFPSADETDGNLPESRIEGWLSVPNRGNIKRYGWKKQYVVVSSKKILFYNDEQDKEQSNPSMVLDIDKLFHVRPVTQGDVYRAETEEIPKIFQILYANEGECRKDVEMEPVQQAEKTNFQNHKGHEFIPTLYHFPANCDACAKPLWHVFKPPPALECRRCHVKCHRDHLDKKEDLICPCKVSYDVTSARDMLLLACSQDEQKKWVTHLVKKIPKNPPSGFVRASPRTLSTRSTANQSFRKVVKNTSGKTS

IC50 [1] | IC50 [2] | Compound
≤ 50 nM | ≤ 50 nM | COc1cc(F)cc(CNC(=O)N2CCc3c2ccc(-c2cn[nH]c2)c3F)c1 [Compound T372, 4-fluoro-N-(3-fluoro-5-methoxybenzyl)-5-(1H-pyrazol-4-yl)indoline-1-carboxamide]
≤ 50 nM | ≤ 50 nM | COc1cc(F)cc([C@@H](CO)NC(=O)c2ncc3cc(-c4cn[nH]c4)ccn23)c1 [Compound T373, (5)-N-(1-(3-fluoro-5-methoxyphenyl)-2-hydroxyethyl)-7-(1H-pyrazol-4-yl)imidazo[1,5-a]pyridine-3-carboxamide]
≤ 50 nM | ≤ 50 nM | COc1cc(F)cc([C@@H](CO)NC(=O)N2CCc3cc(-c4c[nH]nc4F)c(F)cc32)c1 [Compound T374, (S)-6-fluoro-5-(3-fluoro-1H-pyrazol-4-yl)-N-(1-(3-fluoro-5-methoxyphenyl)-2-hydroxyethyl)indoline-1-carboxamide]
≤ 50 nM | 50 to 500 nM | O=C(NCc1cc(F)cc(OC(F)F)c1)N1CCc2cc(-c3cn[nH]c3)c(F)cc21 [Compound T375, N-(3-(difluoromethoxy)-5-fluorobenzyl)-6-fluoro-5-(1H-pyrazol-4-yl)indoline-1-carboxamide]
50 to 500 nM | 500 to 5000 nM | O=C(NCc1cccc(OCC2CC2)c1)c1ncn2cc(-c3cn[nH]c3)ccc12 [Compound T376, N-(3-(cyclopropylmethoxy)benzyl)-6-(1H-pyrazol-4-yl)imidazo[1,5-a]pyridine-1-carboxamide]
≤ 50 nM | ≤ 50 nM | COc1cc(F)cc([C@@H](CO)NC(=O)N2CCc3cc(-c4cn[nH]c4)c(F)cc32)c1 [Compound T377, (S)-6-fluoro-N-(1-(3-fluoro-5-methoxyphenyl)-2-hydroxyethyl)-5-(1H-pyrazol-4-yl)indoline-1-carboxamide]
≤ 50 nM | ≤ 50 nM | O=C(NCC1CC1)c1cc(F)cc(CNC(=O)N2CCc3cc(-c4cn[nH]c4)c(F)cc32)c1 [Compound T378, N-(3-((cyclopropylmethyl)carbamoyl)-5-fluorobenzyl)-6-fluoro-5-(1H-pyrazol-4-yl)indoline-1-carboxamide]
≤ 50 nM | ≤ 50 nM | CN1CC(NC(=O)c2cccc(CNC(=O)N3CCc4cc(-c5cn[nH]c5)c(F)cc43)c2)C1 [Compound T379, 6-fluoro-N-(3-((1-methylazetidin-3-yl)carbamoyl)benzyl)-5-(1H-pyrazol-4-yl)indoline-1-carboxamide]
≤ 50 nM | ≤ 50 nM | COc1cc(F)cc([C@@H](CO)NC(=O)N2CCc3cc(-c4c[nH]nc4C)c(F)cc32)c1 [Compound T381, (S)-6-fluoro-N-(1-(3-fluoro-5-methoxyphenyl)-2-hydroxyethyl)-5-(3-methyl-1H-pyrazol-4-yl)indoline-1-carboxamide]
≤ 50 nM | ≤ 50 nM | O=C(NCC1CC1)c1cccc(CNC(=O)N2CCc3cc(-c4cn[nH]c4)c(F)cc32)c1 [Compound T382, N-(3-((cyclopropylmethyl)carbamoyl)benzyl)-6-fluoro-5-(1H-pyrazol-4-yl)indoline-1-carboxamide]
500 to 5000 nM | 500 to 5000 nM | COc1cccc(CCC(=O)N2CCc3cc(-c4c[nH]nc4N)c(F)cc32)c1 [Compound T383]
≤ 50 nM | 50 to 500 nM | O=C(N[C@H](CO)c1cc(F)cc(OCC2CC2)c1)N1CCc2cc(-c3cn[nH]c3)c(F)cc21 [Compound T386, (S)-N-(1-(3-(cyclopropylmethoxy)-5-fluorophenyl)-2-hydroxyethyl)-6-fluoro-5-(1H-pyrazol-4-yl)indoline-1-carboxamide]
≤ 50 nM | ≤ 50 nM | O=C(NC1CCCC1)c1cc(F)cc(C(CO)NC(=O)N2CCc3cc(-c4cn[nH]c4)c(F)cc32)c1 (stereo not shown) [Compound T389, N-(1-(3-(cyclopentylcarbamoyl)-5-fluorophenyl)-2-hydroxyethyl)-6-fluoro-5-(1H-pyrazol-4-yl)indoline-1-carboxamide]

Further lines, the molecule ahead of its results:

Compound | IC50 [1] | IC50 [2]
O=C(NC1CCCC1)c1cccc([C@@H](CO)NC(=O)N2CCc3cc(-c4cn[nH]c4)c(F)cc32)c1 [Compound T356-S, (S)-N-(1-(3-(cyclopentylcarbamoyl)phenyl)-2-hydroxyethyl)-6-fluoro-5-(1H-pyrazol-4-yl)indoline-1-carboxamide] | ≤ 50 nM | ≤ 50 nM
CC(C)NC(=O)COc1cc(F)cc([C@@H](CO)NC(=O)N2CCc3cc(-c4cn[nH]c4)c(F)cc32)c1 [Compound T358, (5)-6-fluoro-N-(1-(3-fluoro-5-(2-(isopropylamino)-2-oxoethoxy)phenyl)-2-hydroxyethyl)-5-(1H-pyrazol-4-yl)indoline-1-carboxamide] | ≤ 50 nM | ≤ 50 nM
COc1cc(F)cc([C@@H](CO)NC(=O)N2CCc3cc(-c4c[nH]nc4Cl)c(F)cc32)c1 [Compound T359, (S)-5-(3-chloro-1H-pyrazol-4-yl)-6-fluoro-N-(1-(3-fluoro-5-methoxyphenyl)-2-hydroxyethyl)indoline-1-carboxamide] | ≤ 50 nM | 50 to 500 nM
CN(C)Cc1cc(F)cc(CNC(=O)c2ncn3cc(-c4cn[nH]c4)ccc23)c1 [Compound T360, N-(3-((dimethylamino)methyl)-5-fluorobenzyl)-6-(1H-pyrazol-4-yl)imidazo[1,5-a]pyridine-1-carboxamide] | 50 to 500 nM | 500 to 5000 nM
Nc1n[nH]cc1-c1cc2c(cc1F)N(C(=O)NCc1cc(F)cc(F)c1)CC2 [Compound T364, 5-(3-amino-1H-pyrazol-4-yl)-6-fluoro-N-(3,5-difluorobenzyl)indoline-1-carboxamide] | 50 to 500 nM | 500 to 5000 nM
COc1cc(F)cc([C@@H](CO)NC(=O)N2CCc3cc(-c4c[nH]nc4N)c(F)cc32)c1 [Compound T365, (S′)-5-(3-amino-1H-pyrazol-4-yl)-6-fluoro-N-(1-(3-fluoro-5-methoxyphenyl)-2-hydroxyethyl)indoline-1-carboxamide] | ≤ 50 nM | 50 to 500 nM
CN(C)C[C@H](NC(=O)N1CCc2cc(-c3c[nH]nc3F)c(F)cc21)c1cc(F)cc(F)c1 [Compound T366-R, (R)-N-(1-(3,5-difluorophenyl)-2-(dimethylamino)ethyl)-6-fluoro-5-(3-fluoro-1H-pyrazol-4-yl)indoline-1-carboxamide] | 50 to 500 nM | 500 to 5000 nM
CN(C)C[C@@H](NC(=O)N1CCc2cc(-c3c[nH]nc3F)c(F)cc21)c1cc(F)cc(F)c1 [Compound T366-S, (S)-N-(1-(3,5-difluorophenyl)-2-(dimethylamino)ethyl)-6-fluoro-5-(3-fluoro-1H-pyrazol-4-yl)indoline-1-carboxamide] | ≤ 50 nM | ≤ 50 nM
CC(C)CNC(=O)COc1cc(F)cc([C@@H](CO)NC(=O)N2CCc3cc(-c4cn[nH]c4)c(F)cc32)c1 [Compound T367, (S)-6-fluoro-N-(1-(3-fluoro-5-(2-(isobutylamino)-2-oxoethoxy)phenyl)-2-hydroxyethyl)-5-(1H-pyrazol-4-yl)indoline-1-carboxamide] | ≤ 50 nM | ≤ 50 nM
O=C(NCc1cccc(F)c1)c1ncn2cc(-c3cn[nH]c3)ccc12 [Compound T368, N-(3-fluorobenzyl)-6-(1H-pyrazol-4-yl)imidazo[1,5-a]pyridine-1-carboxamide] | 50 to 500 nM | 500 to 5000 nM
O=C(COc1cc(F)cc([C@@H](CO)NC(=O)N2CCc3cc(-c4cn[nH]c4)c(F)cc32)c1)NC1CC(F)(F)C1 [Compound T369, (S)-N-(1-(3-(2-((3,3-difluorocyclobutyl)amino)-2-oxoethoxy)-5-fluorophenyl)-2-hydroxyethyl)-6-fluoro-5-(1H-pyrazol-4-yl)indoline-1-carboxamide] | ≤ 50 nM | ≤ 50 nM
COc1cc(F)cc([C@@H](C)NC(=O)c2ncn3cc(-c4cn[nH]c4F)ccc23)c1 [Compound T370, (R)-6-(5-fluoro-1H-pyrazol-4-yl)-N-(1-(3-fluoro-5-methoxyphenyl)ethyl)imidazo[1,5-a]pyridine-1-carboxamide] | ≤ 50 nM | ≤ 50 nM
COc1cc(F)cc(C(CN)NC(=O)N2CCc3cc(-c4cn[nH]c4)c(F)cc32)c1 (stereo not shown) [Compound T371, N-(2-amino-1-(3-fluoro-5-methoxyphenyl)ethyl)-6-fluoro-5-(1H-pyrazol-4-yl)indoline-1-carboxamide] | ≤ 50 nM | ≤ 50 nM
